Literature values, collected in patent US20090062239A1, “THROMBIN RECEPTOR ANTAGONISTS AS PROPHYLAXIS TO COMPLICATIONS FROM CARDIOPULMONARY SURGERY” (Schering Corporation, priority 2005, published 2009).

Key:
[1] = vein grafts closing off between two weeks and one year after CABG surgery
[2] = treated patients, cardiac/coronary surgery
[3] = high-risk patients undergoing primary CABG, those on aspirin, reoperative bypass

Molecule: CC(=O)Oc1ccccc1C(=O)O [aspirin]
- reduction of later vein graft closings [1]: 50%

Molecule: COC(=O)[C@H](c1ccccc1Cl)N1CCc2sccc2C1 [clopidogrel]
- risk for postoperative hemorrhage [2]: greater risk

Molecule: Aprotinin
- postoperative blood loss [3]: significantly decreases
- transfusion requirements (both units and number of patients) [3]: significantly decreases

Molecule: abciximab
- risk for postoperative hemorrhage [2]: greater risk

Molecule: low-molecular weight heparin
- risk for postoperative hemorrhage [2]: greater risk
